Measurements from US6737383B1, “Herbicidal oxadiazolidines” (priority 1999, dated 2004).

Columns and labels:
duck salad = assay: Test B flood test duck salad; assay type: in vivo, Heteranthera limosa
Procedure, shortened: (§1)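 Each value is a visual injury score relative to controls, with 10 meaning complete control and 0 no effect. Evaluation took place twelve to sixteen days after the 2-leaf-stage plants were treated and kept in the greenhouse.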

sugar beet = assay: Test B pre/postemergence sugar beet; assay type: in vivo, Beta vulgaris
Procedure, shortened: (§2)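 Response is a visual 0-to-10 score relative to untreated plants, where 0 means no effect and 10 means complete control, taken twelve to sixteen days after application. Treatments went onto soil at planting and onto foliage of 1- to 4-leaf plants, using a surfactant-containing non-phytotoxic solvent.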

rice = assay: Test B flood test rice; assay type: in vivo, Oryza sativa
Procedure, shortened: as §1

rape = assay: Test B pre/postemergence rape; assay type: in vivo, Brassica napus
Procedure, shortened: as §2

purple nutsedge = assay: Test B pre/postemergence purple nutsedge; assay type: in vivo, Cyperus rotundus
Procedure, shortened: as §2

corn = assay: Test B pre/postemergence corn; assay type: in vivo, Zea mays
Procedure, shortened: as §2

bedstraw = assay: Test B pre/postemergence bedstraw; assay type: in vivo, Galium aparine; settings: Postemergence; for Plant response rating, Bedstraw: scale 0 to 10, 0 is no effect, 10 is complete control; for Bedstraw plant response rating: scale of 0 to 10 where 0 is no effect and 10 is complete control
Procedure, shortened: as §2

bamyardgrass = assay: Test B flood test barnyardgrass; assay type: in vivo, Echinochloa crus-galli
Procedure, shortened: as §1

blackgrass = assay: Test B pre/postemergence blackgrass; assay type: in vivo, Alopecurus myosuroides
Procedure, shortened: as §2

soybean = assay: Test B pre/postemergence soybean; assay type: in vivo, Glycine max
Procedure, shortened: as §2

smallflower flatsedge = assay: Test B flood test smallflower flatsedge; assay type: in vivo, Cyperus difformis
Procedure, shortened: as §1

cocklebur = assay: Test B pre/postemergence cocklebur; assay type: in vivo, Xanthium strumarium
Procedure, shortened: as §2

velvetleaf = assay: Test B pre/postemergence velvetleaf; assay type: in vivo, Abutilon theophrasti
Procedure, shortened: as §2

wheat = assay: Test B pre/postemergence wheat; assay type: in vivo, Triticum aestivum
Procedure, shortened: as §2

pigweed = assay: Test B pre/postemergence pigweed; assay type: in vivo, Amaranthus retroflexus
Procedure, shortened: as §2

wild oat = assay: Test B pre/postemergence wild oat; assay type: in vivo, Avena fatua
Procedure, shortened: as §2

giant foxtail = assay: Test B pre/postemergence giant foxtail; assay type: in vivo, Setaria faberii
Procedure, shortened: as §2

crabgrass = assay: Test B pre/postemergence crabgrass; assay type: in vivo, Digitaria sanguinalis
Procedure, shortened: as §2

morningglory = assay: Test B pre/postemergence morningglory; assay type: in vivo, Ipomoea hederacea
Procedure, shortened: as §2

surinam grass = assay: Test B pre/postemergence surinam grass; assay type: in vivo, Brachiaria decumbens
Procedure, shortened: as §2

[1] = Rate 62 g/ha, flood test species, Pre-emergence, visual evaluation after twelve to sixteen days
[2] = Rate 125 g/ha, under heading Pre-emergence, flood test species, visual evaluation after twelve to sixteen days
[3] = Rate 250 g/ha, Pre-emergence, flood-test species, scale 0 to 10, 0 is no effect, 10 is complete control
[4] = Rate 500 g/ha, Pre-emergence, flood test species, scale 0 to 10 (0 no effect, 10 complete control)
[5] = Postemergence, Rate 250 g/ha, scale 0 to 10, 0 is no effect, 10 is complete control
[6] = Postemergence, Rate 500 g/ha, scale of 0 to 10 where 0 is no effect and 10 is complete control
[7] = Preemergence, Rate 62 g/ha, scale 0 to 10 (0 no effect, 10 complete control)
[8] = Preemergence, Rate 125 g/ha, scale of 0 to 10 where 0 is no effect and 10 is complete control
[9] = Preemergence, Rate 250 g/ha, scale 0 to 10, 0 is no effect, 10 is complete control
[10] = Preemergence, Rate 500 g/ha, scale 0 to 10, 0 is no effect, 10 is complete control
[11] = Postemergence, Rate 125 g/ha, scale 0 to 10, 0 is no effect, 10 is complete control
[12] = Rate 62 g/ha, Postemergence, scale of 0 to 10 where 0 is no effect and 10 is complete control
[13] = Preemergence, Rate 250 g/ha, scale of 0 to 10 where 0 is no effect and 10 is complete control

`CC(C)N(C(=O)n1oc(=O)n(C(C)CCl)c1=O)c1ccc(F)cc1F` (centres unmarked) [Compound 408] was tested, and the “Plant response rating, Ducksalad (0 to 10 scale, 0 is no effect, 10 is complete control)” value (duck salad; [1]) was 0, the “Ducksalad plant response rating (0 to 10 scale, 0 is no effect, 10 is complete control)” value (duck salad; [2]) was 0 and the “Ducksalad plant response rating” value (duck salad; [3]) was 0. The “Ducksalad plant response rating” value (duck salad; [4]) was 0, the “Plant response rating, Sugarbeets” value (sugar beet; [5]) was 0 and the “Sugarbeets plant response rating” value (sugar beet; [6]) was 6. The “Plant response rating, Sugarbeets” value (sugar beet; [7]) was 2, the “Plant response rating, Sugarbeets” value (sugar beet; [8]) was 4 and the “Sugarbeets plant response rating” value (sugar beet; [9]) was 8. The “Sugarbeets plant response rating” value (sugar beet; [10]) was 8, the “Plant response rating, Rice (0 to 10 scale, 0 is no effect, 10 is complete control)” value (rice; [1]) was 0 and the “Rice plant response rating (0 to 10 scale, 0 is no effect, 10 is complete control)” value (rice; [2]) was 0. For the same molecule, the “Rice plant response rating” value (rice; [3]) was 0, the “Rice plant response rating” value (rice; [4]) was 0 and the “Rape plant response rating” value (rape; [6]) was 2. The “Plant response rating, Rape” value (rape; [7]) was 0, the “Plant response rating, Rape” value (rape; [8]) was 0 and the “Rape plant response rating” value (rape; [9]) was 6. The “Rape plant response rating” value (rape; [10]) was 8, the “Plant response rating, Nutsedge” value (purple nutsedge; [5]) was 2 and the “Nutsedge plant response rating” value (purple nutsedge; [6]) was 3. The “Plant response rating, Nutsedge” value (purple nutsedge; [7]) was 0, the “Plant response rating, Nutsedge” value (purple nutsedge; [8]) was 0 and the “Nutsedge plant response rating” value (purple nutsedge; [9]) was 0. For the same molecule, the “Nutsedge plant response rating” value (purple nutsedge; [10]) was 0, the “Plant response rating, Corn” value (corn; [11]) was 0 and the “Plant response rating, Corn” value (corn; [5]) was 0. For the same molecule, the “Corn plant response rating” value (corn; [6]) was 0, the “Plant response rating, Corn” value (corn; [7]) was 0 and the “Plant response rating, Corn” value (corn; [8]) was 2. The “Corn plant response rating” value (corn; [9]) was 4, the “Corn plant response rating” value (corn; [10]) was 8 and the “Corn plant response rating” value (corn; [12]) was 0. For the same molecule, the “Plant response rating, Bedstraw” value (bedstraw; Rate 125 g/ha) was 6, the “Plant response rating, Bedstraw” value (bedstraw; Rate 250 g/ha) was 8 and the “Bedstraw plant response rating” value (bedstraw; Rate 500 g/ha) was 9. For the same molecule, the “Bedstraw plant response rating” value (bedstraw; Rate 62 g/ha) was 6, the “Plant response rating, Barnyardgrass (0 to 10 scale, 0 is no effect, 10 is complete control)” value (bamyardgrass; [1]) was 0 and the “Barnyardgrass plant response rating (0 to 10 scale, 0 is no effect, 10 is complete control)” value (bamyardgrass; [2]) was 0. The “Barnyardgrass plant response rating” value (bamyardgrass; [3]) was 0, the “Barnyardgrass plant response rating” value (bamyardgrass; [4]) was 0 and the “Plant response rating, Blackgrass” value (blackgrass; [11]) was 2. The “Plant response rating, Blackgrass” value (blackgrass; [5]) was 9, the “Blackgrass plant response rating” value (blackgrass; [6]) was 10 and the “Plant response rating, Blackgrass” value (blackgrass; [7]) was 6. The “Plant response rating, Blackgrass” value (blackgrass; [8]) was 9, the “Blackgrass plant response rating” value (blackgrass; [13]) was 9 and the “Blackgrass plant response rating” value (blackgrass; [10]) was 10. For the same molecule, the “Blackgrass plant response rating” value (blackgrass; [12]) was 0, the “Plant response rating, Soybean” value (soybean; [5]) was 3 and the “Soybean plant response rating” value (soybean; [6]) was 4. For the same molecule, the “Plant response rating, Soybean” value (soybean; [7]) was 0, the “Plant response rating, Soybean” value (soybean; [8]) was 0 and the “Soybean plant response rating” value (soybean; [9]) was 0. The “Soybean plant response rating” value (soybean; [10]) was 0, the “Plant response rating, S. Flatsedge (0 to 10 scale, 0 is no effect, 10 is complete control)” value (smallflower flatsedge; [1]) was 0 and the “S. Flatsedge plant response rating (0 to 10 scale, 0 is no effect, 10 is complete control)” value (smallflower flatsedge; [2]) was 0. For the same molecule, the “S. Flatsedge plant response rating” value (smallflower flatsedge; [3]) was 0, the “S. Flatsedge plant response rating” value (smallflower flatsedge; [4]) was 0 and the “Plant response rating, Cocklebur” value (cocklebur; [11]) was 0. For the same molecule, the “Plant response rating, Cocklebur” value (cocklebur; [5]) was 0, the “Cocklebur plant response rating” value (cocklebur; [6]) was 3 and the “Plant response rating, Cocklebur” value (cocklebur; [7]) was 0. The “Plant response rating, Cocklebur” value (cocklebur; [8]) was 0, the “Cocklebur plant response rating” value (cocklebur; [9]) was 0 and the “Cocklebur plant response rating” value (cocklebur; [10]) was 0. The “Cocklebur plant response rating” value (cocklebur; [12]) was 0, the “Plant response rating, Velvetleaf” value (velvetleaf; [5]) was 0 and the “Velvetleaf plant response rating” value (velvetleaf; [6]) was 4. The “Plant response rating, Velvetleaf” value (velvetleaf; [7]) was 0, the “Plant response rating, Velvetleaf” value (velvetleaf; [8]) was 1 and the “Velvetleaf plant response rating” value (velvetleaf; [9]) was 7. The “Velvetleaf plant response rating” value (velvetleaf; [10]) was 7, the “Wheat plant response rating” value (wheat; [6]) was 2 and the “Plant response rating, Wheat” value (wheat; [7]) was 0. For the same molecule, the “Plant response rating, Wheat” value (wheat; [8]) was 0, the “Wheat plant response rating” value (wheat; [9]) was 4 and the “Wheat plant response rating” value (wheat; [10]) was 7. For the same molecule, the “Plant response rating, Redroot pigweed” value (pigweed; [5]) was 0, the “Redroot pigweed plant response rating” value (pigweed; [6]) was 7 and the “Plant response rating, Redroot pigweed” value (pigweed; [7]) was 4. The “Plant response rating, Redroot pigweed” value (pigweed; [8]) was 6, the “Redroot pigweed plant response rating” value (pigweed; [9]) was 10 and the “Redroot pigweed plant response rating” value (pigweed; [10]) was 10. For the same molecule, the “Wild oats plant response rating” value (wild oat; [6]) was 3, the “Plant response rating, Wild oats” value (wild oat; [7]) was 0 and the “Plant response rating, Wild oats” value (wild oat; [8]) was 2. The “Wild oats plant response rating” value (wild oat; [9]) was 5, the “Wild oats plant response rating” value (wild oat; [10]) was 8 and the “Plant response rating, Giant foxtail” value (giant foxtail; [11]) was 9. The “Plant response rating, Giant foxtail” value (giant foxtail; [5]) was 9, the “Giant foxtail plant response rating” value (giant foxtail; [6]) was 9 and the “Plant response rating, Giant foxtail” value (giant foxtail; [7]) was 10. For the same molecule, the “Plant response rating, Giant foxtail” value (giant foxtail; [8]) was 10, the “Giant foxtail plant response rating” value (giant foxtail; [9]) was 10 and the “Giant foxtail plant response rating” value (giant foxtail; [10]) was 10. The “Giant foxtail plant response rating” value (giant foxtail; [12]) was 9, the “Plant response rating, Crabgrass” value (crabgrass; [11]) was 4 and the “Plant response rating, Crabgrass” value (crabgrass; [5]) was 8. For the same molecule, the “Crabgrass plant response rating” value (crabgrass; [6]) was 9, the “Plant response rating, Crabgrass” value (crabgrass; [7]) was 9 and the “Plant response rating, Crabgrass” value (crabgrass; [8]) was 10. The “Crabgrass plant response rating” value (crabgrass; [9]) was 10, the “Crabgrass plant response rating” value (crabgrass; [10]) was 10 and the “Crabgrass plant response rating” value (crabgrass; [12]) was 3. For the same molecule, the “Plant response rating, Morningglory” value (morningglory; [5]) was 7, the “Morningglory plant response rating” value (morningglory; [6]) was 7 and the “Plant response rating, Morningglory” value (morningglory; [7]) was 0. The “Plant response rating, Morningglory” value (morningglory; [8]) was 0, the “Morningglory plant response rating” value (morningglory; [9]) was 0 and the “Morningglory plant response rating” value (morningglory; [10]) was 7. For the same molecule, the “Plant response rating, B. signalgrass” value (surinam grass; [11]) was 0, the “Plant response rating, B. signalgrass” value (surinam grass; [5]) was 0 and the “B. signalgrass plant response rating” value (surinam grass; [6]) was 5. For the same molecule, the “Plant response rating, B. signalgrass” value (surinam grass; [7]) was 0, the “Plant response rating, B. signalgrass” value (surinam grass; [8]) was 2 and the “B. signalgrass plant response rating” value (surinam grass; [13]) was 4. For the same molecule, the “B. signalgrass plant response rating” value (surinam grass; Preemergence, Rate 500 g/ha, scale of 0 to 10 where 0 is no effect and 10 is complete control) was 7 and the “B. signalgrass plant response rating” value (surinam grass; [12]) was 0.
